Source: patent US20100204202A1, “DRUG FOR ALLEVIATING MOTOR COMPLICATIONS OR PSYCHIATRIC SYMPTOMS OF PARKINSON'S DISEASE” (Asubio Pharma Co., Ltd., priority 2007, published 2010)
Entries after “also recorded” stand apart in the source; their conditions may differ. Counter-ions that a name gives are not always drawn.

Legend:
[1] = target: T1, human serotonin 1A receptors (Homo sapiens, UniProt P08908); assay: Binding affinity test on human serotonin 1A receptors ([3H]8-OH-DPAT, CHO-K1 membranes); conditions: for Ki: Serotonin 1A; for binding affinity (in words): human serotonin 1A receptors
T1 construct: expressed in transfected cells; host or cells: CHO-K1
T1 sequence (P08908 1-422): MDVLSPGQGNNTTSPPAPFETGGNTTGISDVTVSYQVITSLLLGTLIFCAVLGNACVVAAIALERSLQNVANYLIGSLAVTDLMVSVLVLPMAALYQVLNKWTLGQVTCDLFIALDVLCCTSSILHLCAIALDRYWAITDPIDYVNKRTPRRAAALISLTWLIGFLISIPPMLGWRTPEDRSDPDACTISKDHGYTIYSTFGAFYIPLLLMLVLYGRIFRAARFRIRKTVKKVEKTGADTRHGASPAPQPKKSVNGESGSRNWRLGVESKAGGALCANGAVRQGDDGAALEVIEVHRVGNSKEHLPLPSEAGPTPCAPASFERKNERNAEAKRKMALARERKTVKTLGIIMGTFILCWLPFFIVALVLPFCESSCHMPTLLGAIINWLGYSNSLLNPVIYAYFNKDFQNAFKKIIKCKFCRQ
Experimental: For the test, membrane specimens prepared from Chinese hamster ovary (CHO-K1) cells expressing human serotonin 1A receptors were used. To a 50 mM Tris-HCl buffer (pH 7.4) including 5 mM CaCl2, 0.1% ascorbic acid, and 10 μg/mL saponin, [^3H] […] The reaction solution was allowed to react at 25° C. for 60 minutes, then the reaction solution was filtered with a cell harvester, the filtered filter paper was transferred to a measurement vial, a liquid scintillator was added and the receptor bond radioactivity remaining on the filter paper was determined by a liquid scintillation counter. The nonspecific bonds were defined as the amount of bonds in the presence of 10 μM serotonin.
(§1) The following formula was used to calculate the binding inhibition rate: […]
Furthermore, the inhibition constant (Ki) was calculated.

[2] = target: T2, human dopamine D2L receptors (Homo sapiens, UniProt P14416); assay: Binding affinity test on human dopamine D2L receptors ([3H]spiperone, CHO membranes); conditions: for Ki: Dopamine D2L; for binding affinity (in words): human dopamine D2L receptors
T2 construct: expressed in transfected cells; host or cells: CHO
Experimental: (§2) For the test, membrane specimens prepared from Chinese hamster ovary (CHO) cells expressing human dopamine D2L receptors were used. To a 50 mM Tris-HCl (pH 7.4) buffer containing 1.4 mM ascorbic acid, 0.001% BSA, and 150 mM NaCl, [^3H] spiperone (final concentration 0.16 nM), the test sample solution and a membrane specimen were added. The reaction solution was allowed to react at 25° C. for 2 hours, then the reaction solution was filtered with a cell harvester, the filtered filter paper was transferred to a measurement vial, a liquid scintillator was added and the receptor bond radioactivity remaining on the filter paper was determined by a liquid scintillation counter. The nonspecific bonds were defined as the amount of bonds in the presence of 10 μM haloperidol.
The following formula was used to calculate the binding inhibition rate:
[amount of [^3H] spiperone bonds in the presence of 10 μM haloperidol]}/{[amount of [^3H] spiperone bonds in the absence of test sample]−[amount of [^3H] spiperone bonds in the presence of 10 μM haloperidol]}
(§3) From the binding inhibition rate, a regression formula was used to calculate the 50% inhibition concentration. Furthermore, the inhibition constant (Ki) was calculated.

[3] = target: T3, human dopamine D2S receptors (Homo sapiens, UniProt P14416); assay: Binding affinity test on human dopamine D2S receptors ([3H]spiperone, CHO membranes); conditions: for Ki: Dopamine D2S; for binding affinity (in words): human dopamine D2S receptors
T3 construct: expressed in transfected cells; host or cells: CHO
Experimental: as §2, with “dopamine D2S” for “dopamine D2L”, “was added,” for “was added”, “determined with” for “determined by”
as §1, §3

[4] = system: Parkinson's disease model rats; assay: Hyperkinesia of the forelimbs and shortening of rotational behavior duration induced by repeated doses of levodopa; assay type: in vivo, rat; conditions: for rats that did not exhibit rotational behavior: 5 mg/kg oral
From the text: In rats with unilateral nigrostriatal dopamine nerve destruction generally used as Parkinson's disease animal models, it became clear that by administering levodopa by repeated dosage for about 5 weeks, behavior resembling the symptoms of advanced stage Parkinson's disease appeared. That is, in Parkinson's disease model rats prepared in the same way as in Example 4, along with repeated doses of levodopa, abnormal behavior such as involuntary extending of the forelimb or opening or closing of the hand, up-and-down movement of the wrist, choreiform tremor in the forelimb on the opposite side of microinjection of 6-hydroxydopamine was observed (FIG. 3). This abnormal behavior is reported by Steece-Collier et al. (Steece-Collier K. et al., “Embryonic mesencephalic grafts increase levodopa-induced forelimb hyperkinesia in parkinsonian rats”, Movement Disorders, 2003, 18, p. 1442-1454) as hyperkinesia of the forelimbs.
This appears dependent on the period of repeated doses of levodopa and reportedly is similar to clinical dyskinesia. […] Bibbiani et al. (Bibbiani F. et al., “Serotonin 5-HT1A agonist improves motor complications in rodent and primate parkinsonian models”, Neurology, 2001, 57, p. 1829-1834) report that in Parkinson's disease model rats, along with repeated doses of levodopa, a shortening of the rotational behavior duration is observed and that this phenomenon resembles the wearing off phenomenon in clinical studies.
That is, they treated each group by repeated doses of levodopa and repeated dosage of the tested substance for about 2 weeks (Monday to Friday) and observed the hyperkinesia of the forelimbs and rotational behavior after levodopa administration. Note that the SUN N4057 was subcutaneously administered right before levodopa administration, the sarizotan was orally administered about 20 minutes before levodopa dosage in accordance with above-mentioned known reports (Bibbiani F. et al., Neurology, 2001, 57, p. 1829-1834), and the Example Compound 4 of Japanese Patent Publication No. 2005-298402A was subcutaneously administered about 30 minutes before levodopa dosage in accordance with the above-mentioned Japanese Patent Publication No. 2005-298402A. Further, for the solvent, for SUN N4057 and Example Compound 4 of Japanese Patent Publication No. 2005-298402A, physiological saline was used.
In the same way as Example 4, Parkinson's disease model rats were prepared and the rats treated by repeated doses of levodopa (twice a day, Monday to Friday) for 5 weeks and measured for hyperkinesia of the forelimbs and rotational behavior. Further, based on the results of the hyperkinesia of the forelimbs and rotational behavior duration, the rats were assigned to the groups so as to prevent any significant difference between them, then the effects of the tested substances on these behaviors resembling symptoms of advanced stage Parkinson's disease patients were compared and studied. […] Note that compound Ib (0.3, 1 mg/kg) and compound Ic (0.3, 1 mg/kg) were both intraperitoneally administered right before levodopa administration. For the solvent, physiological saline was used.

[5] = 0.03, 0.1 mg/kg s.c. repeated 2 weeks
[6] = 1, 3 mg/kg s.c. repeated 2 weeks

T3 sequence (P14416 1-414 isoform P14416-2): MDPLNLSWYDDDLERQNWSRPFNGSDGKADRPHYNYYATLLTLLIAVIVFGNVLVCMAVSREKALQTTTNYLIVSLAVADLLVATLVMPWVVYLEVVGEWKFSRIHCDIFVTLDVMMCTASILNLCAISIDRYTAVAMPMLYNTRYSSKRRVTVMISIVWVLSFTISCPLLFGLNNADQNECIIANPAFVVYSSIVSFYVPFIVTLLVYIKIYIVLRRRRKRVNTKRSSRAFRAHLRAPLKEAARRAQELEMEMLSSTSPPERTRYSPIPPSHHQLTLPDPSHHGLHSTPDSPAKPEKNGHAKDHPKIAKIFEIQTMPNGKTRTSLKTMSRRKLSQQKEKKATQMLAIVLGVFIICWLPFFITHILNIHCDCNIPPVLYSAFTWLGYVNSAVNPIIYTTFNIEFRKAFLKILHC
T2 sequence (P14416 whole entry): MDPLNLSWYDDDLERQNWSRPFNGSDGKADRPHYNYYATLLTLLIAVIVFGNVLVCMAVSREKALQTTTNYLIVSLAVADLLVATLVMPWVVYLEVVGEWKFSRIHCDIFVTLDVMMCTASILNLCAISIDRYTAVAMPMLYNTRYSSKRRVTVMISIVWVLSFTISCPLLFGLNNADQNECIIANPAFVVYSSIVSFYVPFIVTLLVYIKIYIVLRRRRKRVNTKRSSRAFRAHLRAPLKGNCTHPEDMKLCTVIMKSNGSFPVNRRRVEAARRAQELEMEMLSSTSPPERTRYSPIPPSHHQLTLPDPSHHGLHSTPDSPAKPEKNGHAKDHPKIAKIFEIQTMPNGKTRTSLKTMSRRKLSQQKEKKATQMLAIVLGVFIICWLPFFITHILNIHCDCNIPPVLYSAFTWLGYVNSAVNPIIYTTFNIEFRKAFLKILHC

## O=C1c2ccccc2OC=C(Cl)N1CCCCN1CC=C(c2ccccn2)CC1 [SUN N4057, 3-chloro-4,5-dihydro-4-{4-[4-(2-pyridyl)-1,2,3,6-tetrahydropyridin-1-yl]butyl}-1,4-benzoxazepin-5-one.dihydrochloride-dihydrate]
[1]
  Ki: 0.0249 nM
  binding affinity (in words): particularly strong binding affinity
[2]
  Ki: 161 nM
[3]
  Ki: 162 nM
[4]; 0.03 mg/kg s.c. repeated 2 weeks, 1 hour after levodopa dosage
  hyperkinesia of the forelimbs: significantly inhibited
[4]; 0.1 mg/kg s.c. repeated 2 weeks, 1 and 2 hours after levodopa dosage
  hyperkinesia of the forelimbs: significantly inhibited
[4]; [5]
  end of the rotational behavior: significantly prolonged
  rotational behavior duration: significantly prolonged

## Cl.Cl.O=c1[nH]c2cccc(C3CCCN(Cc4cncc(-c5ccc(F)cc5)c4)C3)c2o1 (centres unmarked) [7-(1-{[5-(4-fluorophenyl)pyridin-3-yl]methyl}piperidin-3-yl)-1,3-benzoxazol-2(3H)-one dihydrochloride]
[1]
  Ki: 2.67 nM
[2]
  Ki: 5.42 nM
  binding affinity (in words): comparatively strong binding affinity
[3]
  Ki: 6.34 nM
  binding affinity (in words): comparatively strong binding affinity
[4]; 3 mg/kg s.c. repeated 2 weeks
  rotational behavior duration: significant prolongation
[4]; [6]
  end of the rotational behavior: prolonged
  start of rotational behavior: started earlier
[4]; 1, 3 mg/kg s.c. repeated 2 weeks, vs physiological saline group, dihydrochloride
  hyperkinesia of the forelimbs: no action was exhibited; also recorded: no significant difference

## Cl.Cl.Fc1ccc(-c2cncc(CNC[C@H]3CCc4ccccc4O3)c2)cc1 [Sarizotan, 1-[(2R)-3,4-dihydro-2H-chromen-2-yl]-N-{[5-(4-fluorophenyl)pyridin-3-yl]methyl}methanamine dihydrochloride]
[1]
  Ki: 0.0293 nM
  binding affinity (in words): particularly strong binding affinity
[2]
  Ki: 3.29 nM
  binding affinity (in words): comparatively strong binding affinity
[3]
  Ki: 2.56 nM
  binding affinity (in words): comparatively strong binding affinity
[4]; 5 mg/kg oral repeated 2 weeks
  rotational behavior duration: significant shortening
[4]; 5 mg/kg oral repeated 2 weeks, 1 hour after levodopa dosage, p=0.099
  hyperkinesia of the forelimbs: tendency of the hyperkinesia of the forelimbs to be inhibited
[4]; 30 minutes after levodopa dosage
  rats that did not exhibit rotational behavior: Six out of nine
[4]; 1 hour after levodopa dosage
  rats that did not exhibit rotational behavior: three out of nine
[4]; 1 and 5 mg/kg oral repeated 2 weeks
  start of rotational behavior due to levodopa dosage: delay in the start of rotational behavior
[4]; repeated oral administration, week 7 of levodopa
  hyperkinesia of the forelimbs, compared with the solvent group (Dunnett's test): no significant difference
